Laboratory results as given in PMC4666032, “KPT-330, a potent and selective exportin-1 (XPO-1) inhibitor, shows antitumor effects modulating the expression of cyclin D1 and survivin in prostate cancer models” (BMC Cancer, 2015).

Assays:
Type in all cases: cell-based
[1] = tested on: 22rv1; assay: Growth/viability assay, IC50 at 72 h; details: Homo sapiens
From the text: (§1) Four commercial (LnCaP, 22rv1, DU145 and PC3) and twelve non-commercial (LAPC-4 [44], CWR22, PCb2 [45], PC3Lymphnode, PC3M, PC3M-pro4 [46] and PC3M-Ln4 [47], LnCaP-104S [47], LnCaP104R1 [47], LnCaP-C81 [47], C4-2B [48], VCAP [49] and DuCaP [[49]) cell lines were selected for the in vitro experimental studies for their biological characteristics: LAPC-4 (Androgen receptor [AR] positive, androgen dependent with low Akt/mTOR activities, p53 wt); LnCaP (AR positive, androgen dependent with high Akt/mTOR activities, p53 wt); LnCaP-C81 and LnCaP-C4-2B (AR positive, androgen independent with high Akt/mTOR activities, p53 wt); 22rv1 (AR positive, androgen independent with low Akt/mTOR activities, p53 wt); PC3 (AR negative, with high Akt/mTOR activities and no p53 function (p53 del) and DU145 (AR negative, with low Akt/mTOR activities and mutant p53). PC3 and DU145 have been also transfected with AR to obtain PC3AR [50] and DU-AR [51]. Benign prostatic hyperplasia line (BPH1), and Prostatic epithelial lines (EPN and RWPE-1) were used as non-neoplastic controls. Cells were routinely cultured in appropriate medium supplemented with 10 % fetal bovine serum (FBS), 1 % pen-strep and 1 % L-glutamine (Invitrogen Corporation, Carlsbad, CA). To minimize the risk to work with misidentified and/or contaminated cell lines, DNA profiling was periodically carried out in-house to authenticate cell cultures. DNA was isolated from cell lines using a standard DNA isolation kit. STR profiling was performed by using GenePrint® 10 System (Promega Corporation, Madison, WI). An eight-capillary 3500 Genetic Analyzer (Applied Biosystems Life Technologies Europe BV, Monza, Italy) was used to separate and identify alleles using standard procedures. GenePrint® 10 System allows co-amplification and detection of eight human loci required by the guidelines ASN-0002. For non-commercial cell lines, the authentication process was carried out by comparing STR-fingerprints with those published by Adri van Bokhoven and co-workers. In addition, cell lines were stocked at very low passages and used at <15-20 subcultures.
(§2) Cells were seeded at a density of 2 x 10^4 cells/mL in 24-well plates. Cells were left to attach and grow in 5 % FCS DMEM for 24 h. After this time, cells were maintained in the appropriate culture conditions. Morphological controls were performed every day with an inverted phase-contrast photomicroscope (Nikon Diaphot, Tokyo, Japan) before cell trypsinization and counting. Cells were trypsinized and resuspended in 1.0 ml of saline, then counted using a NucleoCounter™ NC-100 (automated cell counter systems, Chemotec, Gydevang, Denmark). The effect on cell proliferation was measured by taking the mean cell number with respect to controls over time for the different treatment groups.
(§3) Viable cells were counted by using the NucleoCounter™ NC-100 (automated cell counter systems, Chemotec, Cydevang, DK). Apoptosis was evaluated by using Tali® Apoptosis Kit - Annexin V Alexa Fluor® 488 & Propidium Iodide-based, (Life Technologies Italia, Monza, Italy). Stained cells were then measured on a Tali® Image-Based Cytometer. Apoptosis was further confirmed by FACS analysis following the instructions of the manufacturer.
(§4) Six SINE analogs KPT-127, KPT-185, KPT-205, KPT-227, KPT251 and KPT-330 sharing a trifluoromethyl phenyl triazole scaffold, were investigated for their growth inhibitory and apoptotic potential in our PCa cell panel. Therefore, the effects of these XPO1 inhibitors were evaluated on the growth of PCa cell lines performing dose- and time-dependent studies. To examine the dose-dependent effects of these compounds, we treated cells with varying doses of the compounds (0, 1, 10, 50, 100, 500 and 1000 nM) and assessed viability at 72 hours after treatment. The IC50 for each compound was then calculated. […]

[2] = tested on: BPH-1; assay: Growth/viability assay, IC50 at 72 h; details: Homo sapiens
From the text: as §1, §2, §3, §4

[3] = tested on: C4-2B; assay: Growth/viability assay, IC50 at 72 h; details: Homo sapiens, Fig. 2g
From the text: as §1, §2, §3, §4

[4] = tested on: CWR22; assay: Growth/viability assay, IC50 at 72 h; details: Homo sapiens; CWR22, Fig. 2g
From the text: as §1, §2, §3, §4

[5] = tested on: DU-AR; assay: Growth/viability assay, IC50 at 72 h; details: Homo sapiens, Fig. 2g
From the text: as §1, §2, §3, §4

[6] = tested on: DU145; assay: Growth/viability assay, IC50 at 72 h; details: Homo sapiens, DU-145; DU145, Fig. 2g
From the text: as §1, §2, §3, §4

[7] = tested on: DuCaP; assay: Growth/viability assay, IC50 at 72 h; details: Homo sapiens, Fig. 2g
From the text: as §1, §2, §3, §4

[8] = tested on: EPN; assay: Growth/viability assay, IC50 at 72 h; details: Homo sapiens, Fig. 2g
From the text: as §1, §2, §3, §4

[9] = tested on: LAPC-4; assay: Growth/viability assay, IC50 at 72 h; details: Homo sapiens
From the text: as §1, §2, §3, §4

[10] = tested on: LnCaP-104S; assay: Growth/viability assay, IC50 at 72 h; details: Homo sapiens, Fig. 2g
From the text: as §1, §2, §3, §4

[11] = tested on: LnCaP-C81; assay: Growth/viability assay, IC50 at 72 h; details: Homo sapiens; C-81, Fig. 2g
From the text: as §1, §2, §3, §4

[12] = tested on: LnCaP104R1; assay: Growth/viability assay, IC50 at 72 h; details: Homo sapiens; 104R1, Fig. 2g
From the text: as §1, §2, §3, §4

[13] = tested on: LnCaP; assay: Growth/viability assay, IC50 at 72 h; details: Homo sapiens
From the text: as §1, §2, §3, §4

[14] = tested on: PC3AR; assay: Growth/viability assay, IC50 at 72 h; details: Homo sapiens, PC3/AR, Fig. 2g
From the text: as §1, §2, §3, §4

[15] = tested on: PC3M-Ln4; assay: Growth/viability assay, IC50 at 72 h; details: Homo sapiens; PC3M-Ln4, Fig. 2g
From the text: as §1, §2, §3, §4

[16] = tested on: PC3M-pro4; assay: Growth/viability assay, IC50 at 72 h; details: Homo sapiens; PC3M-pro4, Fig. 2g
From the text: as §1, §2, §3, §4

[17] = tested on: PC3; assay: Growth/viability assay, IC50 at 72 h; details: Homo sapiens, PC-3
From the text: as §1, §2, §3, §4

[18] = tested on: PCb2; assay: Growth/viability assay, IC50 at 72 h; details: Homo sapiens; PCb2, Fig. 2g
From the text: as §1, §2, §3, §4

[19] = tested on: RWPE-1; assay: Growth/viability assay, IC50 at 72 h; details: Homo sapiens; RWPE-1, Fig. 2g
From the text: as §1, §2, §3, §4

[20] = tested on: VCaP; assay: Growth/viability assay, IC50 at 72 h; details: Homo sapiens, Fig. 2g
From the text: as §1, §2, §3, §4

[21] = tested on: PCa cell lines; assay: Growth inhibition across the PCa cell panel; details: Homo sapiens; 72 hours, range across the cell panel; read-out: IC50 values, range over PCa cell lines
From the text: as §1, with “STR profiling was performed by using GenePrint® 10 System (Promega Corporation, Madison, WI). An eight-capillary 3500 Genetic Analyzer (Applied Biosystems Life Technologies Europe BV, Monza, Italy) was used to separate and identify alleles using standard procedures. GenePrint® 10 System allows co-amplification and detection of eight human loci required by the guidelines ASN-0002. For non-commercial cell lines, the authentication process was carried out by comparing STR-fingerprints with those published by Adri van Bokhoven and co-workers. In addition, cell lines were stocked at very low passages and used at <15-20 subcultures.” left out
Cells were seeded at a density of 2 x 10^4 cells/mL in 24-well plates. […] Cells were trypsinized and resuspended in 1.0 ml of saline, then counted using a NucleoCounter™ NC-100 (automated cell counter systems, Chemotec, Gydevang, Denmark). The effect on cell proliferation was measured by taking the mean cell number with respect to controls over time for the different treatment groups.
as §3, with “Apoptosis was further confirmed by FACS analysis following the instructions of the manufacturer.” left out
as §4

Structure (SMILES) | IC50 ([1]; 22rv1, 72 hours, Fig. 2a-f) [nM] | IC50 ([1]; 22rv1, Fig. 2g) [nM] | IC50 ([2]; BPH-1, BPH1, Fig. 2g) [nM] | IC50 ([2]; BPH-1, 72 hours, Fig. 2a-f) [nM] | IC50 [3] [nM] | IC50 [4] [nM] | IC50 [5] [nM] | IC50 [6] [nM] | IC50 [7] [nM] | IC50 [8] [nM] | IC50 ([9]; LAPC4, LAPC-4, Fig. 2g) [nM] | IC50 ([9]; LAPC4, 72 hours, Fig. 2a-f) [nM] | IC50 [10] [nM] | IC50 [11] [nM] | IC50 [12] [nM] | IC50 ([13]; 72 hours, Fig. 2a-f) [nM] | IC50 ([13]; Fig. 2g) [nM] | IC50 [14] [nM] | IC50 [15] [nM] | IC50 [16] [nM] | further results
CC(C)OC(=O)/C=C\n1cnc(-c2cccc(Cl)c2)n1 [KPT-127] | 100 ± 10 | 100 | > 1000 | > 1000 | 25 | 160 | 47 | 55 | 100 | 800 | 201 | 201 ± 15 | 50 | 20 | 30 | 43 ± 4 | 43 | 62 | 55 | 90 | IC50 ([17]; PC3, 72 hours, Fig. 2a-f): 59 ± 3 nM; IC50 ([17]; PC3, Fig. 2g): 59 nM; IC50 [18]: 44 nM; IC50 [19]: 1000 nM; IC50 [20]: 100 nM; IC50 [21]: 43 to 201 nM
COc1cc(-c2ncn(/C=C\C(=O)OC(C)C)n2)cc(C(F)(F)F)c1 [KPT-185] | 189 ± 84 | 160 | > 1000 | > 1000 | 179 | 230 | 143 | 177 | 270 | 1000 | 321 | 321 ± 105 | 240 | 200 | 260 | 268 ± 34 | 268 | 233 | 200 | 330 | IC50 ([17]; PC3, 72 hours, Fig. 2a-f): 207 ± 44 nM; IC50 ([17]; PC3, Fig. 2g): 207 nM; IC50 [18]: 215 nM; IC50 [19]: 1000 nM; IC50 [20]: 400 nM; IC50 [21]: 180 to 700 nM
CC(C)OC(=O)/C=C\n1cnc(-c2cc(OC(C)C)cc(C(F)(F)F)c2)n1 [KPT-207] | 78 ± 19 | 78 | > 1000 | > 1000 | 144 | 133 | 65 | 90 | 120 | 750 | 115 | 101 ± 1 | 80 | 160 | 100 | 113 ± 12 | 301 | 80 | 60 | 125 | IC50 ([17]; PC3, 72 hours, Fig. 2a-f): 74 ± 5 nM; IC50 ([17]; PC3, Fig. 2g): 74 nM; IC50 [18]: 67 nM; IC50 [19]: 820 nM; IC50 [20]: 130 nM
COc1cc(-c2ncn(/C=C\c3nnco3)n2)cc(C(F)(F)F)c1 [KPT-225] | 204 ± 44 | 204 | > 1000 | > 1000 | 170 | 180 | 112 | 135 | 180 | 1000 | 223 | 223 ± 31 | 120 | 180 | 160 | 171 ± 30 | 171 | 144 | 80 | 180 | IC50 ([17]; PC3, 72 hours, Fig. 2a-f): 122 ± 5 nM; IC50 ([17]; PC3, Fig. 2g): 122 nM; IC50 [18]: 160 nM; IC50 [19]: 1000 nM; IC50 [20]: 240 nM
